This is an account of results in patent publication US10512634B2, “Benzimidazole derivates useful as inhibitors of mammalian histone deacetylase activity” (KANCERA AB, priority 2015, dated 2019).

The target of one assay is HDAC11 (Homo sapiens (Human), UniProt Q96DB2). The assay is described as follows: HDAC in vitro enzymatic assay (full HDAC panel). To be noted: read-out: IC50 HDAC11, top concentration 10 μM.
Another assay addresses HDAC8 (Homo sapiens (Human), UniProt Q9BY41). The assay is described as follows: HDAC in vitro enzymatic assay (fluorescence). The note with it: read-out: IC50 HDAC8.
The next assay has as its target HDAC9 (Homo sapiens (Human), UniProt Q9UKV0). The assay is described as follows: HDAC in vitro enzymatic assay (full HDAC panel). The note with it: read-out: IC50 HDAC9, top concentration 10 μM.
The next assay addresses HDAC5 (Homo sapiens (Human), UniProt Q9UQL6). As to the kind of experiment: HDAC in vitro enzymatic assay (full HDAC panel). The note with it: read-out: IC50 HDAC5, top concentration 10 μM.
A further assay deals with HDAC1 (Homo sapiens (Human), UniProt Q13547). The assay is described as follows: HDAC in vitro enzymatic assay (fluorescence).
Chain of HDAC1 (Q13547 whole entry): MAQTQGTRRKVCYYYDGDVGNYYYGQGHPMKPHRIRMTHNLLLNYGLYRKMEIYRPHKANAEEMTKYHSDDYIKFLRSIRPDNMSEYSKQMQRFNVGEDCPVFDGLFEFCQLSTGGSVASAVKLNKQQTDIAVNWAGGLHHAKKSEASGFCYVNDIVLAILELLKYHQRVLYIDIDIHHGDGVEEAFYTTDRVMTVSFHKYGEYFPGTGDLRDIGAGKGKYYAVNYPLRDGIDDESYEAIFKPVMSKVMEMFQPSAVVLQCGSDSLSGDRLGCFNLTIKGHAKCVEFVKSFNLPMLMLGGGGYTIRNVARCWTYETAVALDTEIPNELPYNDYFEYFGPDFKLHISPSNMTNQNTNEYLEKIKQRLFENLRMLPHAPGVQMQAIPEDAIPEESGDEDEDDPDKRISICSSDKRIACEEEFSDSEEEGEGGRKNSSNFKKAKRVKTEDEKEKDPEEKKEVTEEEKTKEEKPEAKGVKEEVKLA
The target in a further assay is HDAC4 (Homo sapiens (Human), UniProt P56524). The assay is described as follows: HDAC in vitro enzymatic assay (full HDAC panel). The note with it: read-out: IC50 HDAC4, top concentration 10 μM.
In a further assay the target is HDAC3 (Homo sapiens (Human), UniProt O15379). As to the kind of experiment: HDAC in vitro enzymatic assay (fluorescence). The note with it: read-out: IC50 HDAC3.
Chain of HDAC3 (O15379 whole entry): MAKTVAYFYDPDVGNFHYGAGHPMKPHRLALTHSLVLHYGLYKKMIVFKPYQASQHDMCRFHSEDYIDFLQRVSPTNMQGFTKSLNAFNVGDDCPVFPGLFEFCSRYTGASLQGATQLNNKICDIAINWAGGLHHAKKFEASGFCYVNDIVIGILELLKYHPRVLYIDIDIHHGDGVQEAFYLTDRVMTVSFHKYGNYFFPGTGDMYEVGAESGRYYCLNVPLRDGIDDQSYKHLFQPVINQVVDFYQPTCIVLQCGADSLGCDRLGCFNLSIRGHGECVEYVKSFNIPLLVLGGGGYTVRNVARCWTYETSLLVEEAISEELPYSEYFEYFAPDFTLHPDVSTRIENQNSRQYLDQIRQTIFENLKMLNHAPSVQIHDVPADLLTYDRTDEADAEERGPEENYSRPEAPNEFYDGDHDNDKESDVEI
Chain of HDAC3 (Q9Y618 395-489 partner): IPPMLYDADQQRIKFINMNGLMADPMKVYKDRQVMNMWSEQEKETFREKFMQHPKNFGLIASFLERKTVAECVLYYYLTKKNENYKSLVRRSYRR
Another assay concerns the target HDAC10 (Homo sapiens (Human), UniProt Q969S8). As to the kind of experiment: HDAC in vitro enzymatic assay (full HDAC panel). To be noted: read-out: IC50 HDAC10, top concentration 10 μM.
A further assay deals with HDAC7 (Homo sapiens (Human), UniProt Q8WUI4). As to the kind of experiment: HDAC in vitro enzymatic assay (full HDAC panel). To be noted: read-out: IC50 HDAC7, top concentration 10 μM.
Chain of HDAC7 (Q8WUI4 whole entry): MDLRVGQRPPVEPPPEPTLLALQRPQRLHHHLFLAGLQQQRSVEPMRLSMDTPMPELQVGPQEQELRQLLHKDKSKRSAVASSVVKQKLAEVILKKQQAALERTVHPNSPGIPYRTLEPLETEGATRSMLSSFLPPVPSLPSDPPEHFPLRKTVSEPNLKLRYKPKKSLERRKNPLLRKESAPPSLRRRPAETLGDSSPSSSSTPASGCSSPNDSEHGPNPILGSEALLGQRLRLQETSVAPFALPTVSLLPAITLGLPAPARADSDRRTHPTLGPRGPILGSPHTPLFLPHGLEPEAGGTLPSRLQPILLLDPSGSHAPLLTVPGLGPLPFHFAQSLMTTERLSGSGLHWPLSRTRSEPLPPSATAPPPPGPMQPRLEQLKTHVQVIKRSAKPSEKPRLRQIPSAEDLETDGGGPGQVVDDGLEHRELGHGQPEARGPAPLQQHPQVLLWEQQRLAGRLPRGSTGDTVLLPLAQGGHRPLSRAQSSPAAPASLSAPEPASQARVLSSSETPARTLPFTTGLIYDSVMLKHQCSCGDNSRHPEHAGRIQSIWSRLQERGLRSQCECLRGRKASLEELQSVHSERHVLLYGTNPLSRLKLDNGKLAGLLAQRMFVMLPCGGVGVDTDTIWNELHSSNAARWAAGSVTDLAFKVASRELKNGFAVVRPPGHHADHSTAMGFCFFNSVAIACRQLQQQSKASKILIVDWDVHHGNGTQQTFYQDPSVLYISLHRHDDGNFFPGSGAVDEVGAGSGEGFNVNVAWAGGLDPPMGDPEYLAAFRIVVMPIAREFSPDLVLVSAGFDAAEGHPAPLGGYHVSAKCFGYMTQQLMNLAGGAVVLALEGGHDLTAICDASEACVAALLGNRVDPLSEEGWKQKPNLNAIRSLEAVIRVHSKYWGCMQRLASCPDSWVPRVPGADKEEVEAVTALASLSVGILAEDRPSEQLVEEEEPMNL
Another assay concerns the target HDAC6 (Homo sapiens (Human), UniProt Q9UBN7). The assay is described as follows: HDAC in vitro enzymatic assay (fluorescence). It counts as biochemical. Here is the method: Biological Tests Method for Measurement of Enzymatic Activity of HDACs Materials & Methods
All Examples were tested in HDAC1, 2, 3, 6 and 8 in vitro enzymatic assays. The assay principle is well known (Hauser et al. 2009, Bradner et al. 2010) and all necessary reagents like enzymes, substrates, developer and reference compounds are commercially available (see e.g. BPS Biosciences http://www.bpsbioscience.com/). A series of dilutions of the compounds were prepared with a top concentration of 200 μM (2 μM for HDAC6). The enzymatic reactions were conducted in a mixture containing assay buffer, bovine serum albumin, HDAC substrate, and a test compound. After enzymatic reaction, developer was added and after an additional incubation time, fluorescence intensity was measured at an excitation wavelength of 360 nm and an emission wavelength of 460 nm. A selection of the Examples were tested in a full HDAC panel containing HDAC1, 2, 3, 4, 5, 6, 7, 8, 9, 10 and 11 in vitro enzymatic assays. The tests were performed as above except that a series of dilutions of the compounds were prepared with a top concentration of 10 μM for all HDACs.

The next assay concerns the target HDAC2 (Homo sapiens (Human), UniProt Q92769). The assay is described as follows: HDAC in vitro enzymatic assay (fluorescence). To be noted: read-out: IC50 HDAC2.
Assay [1] deals with PBMC (peripheral blood mononuclear cells from healthy donors). The assay is described as follows: CellTiter-Blue cell viability assay. It counts as cell-based. The note with it: PBMC, 72 h, read-out: IC50 healthy PBMC (cell viability). How it is done: (§1) Method for Measurement of Cell Viability
(§2) The CellTiter-Blue® Cell Viability Assay (Promega) provides a homogeneous, fluorometric method for estimating the number of viable cells present in multi-well plates. The assay uses the indicator dye resazurin to measure the metabolic capacity of cells. Viable cells retain the ability to reduce resazurin into resorufin, which is highly fluorescent.
(§3) Stock solutions (10 mM in DMSO) of compounds were serially diluted 1:2 in 11 concentrations. 50 nL/well (10 mM compound stock in DMSO) was acoustically dispensed in 384-well assay plates with an acoustic dispenser (EDC Biosystems ATS-100AV). Final starting concentration in the assay was 20 μM (0.2% DMSO) for test compounds. […] After 72 hours, Celltiter Blue reagent (Promega #G8081) was diluted 1:10 with PBS and then added to wells (5 μL/well). The plates were incubated for 2 hours following addition of reagent. […] Results were calculated as % cell viability compared to background (cells treated with 0.2% DMSO).
A general note: Resazurin is reduced to fluorescent resorufin, in cell work by metabolically active cells.

For a further assay, the system named is PaCa2 (pancreatic). The assay is described as follows: CellTiter-Blue cell viability assay. It counts as cell-based. The note with it: PaCa-2, 72 h, read-out: IC50 PaCa2 (cell viability). Here is the method:
as §1, §2, §3

The subject of the next assay is AMO-1 (plasmacytom). As to the kind of experiment: CellTiter-Blue cell viability assay. Type of assay: cell-based. The note with it: Homo sapiens, AMO1, 72 h, read-out: IC50 AMO-1 (cell viability). How it is done:
as §1, §2, §3

The test system of another assay is U266 (multiple myelom). The assay is described as follows: CellTiter-Blue cell viability assay. It counts as cell-based. To be noted: Homo sapiens, U-266, 72 h, read-out: IC50 U266 (cell viability). Here is the method:
as §1, §2, §3

[2] abbreviates: full HDAC panel, top concentration 10 μM.
Where [3] appears, read: read-out: IC50 HDAC 1, full HDAC panel, top concentration 10 μM.
The mark [4] stands for this setting: full HDAC panel, top concentration 10 μM, read-out: IC50 HDAC6.
Setting [5] is: top concentration 2 μM, read-out: IC50 values for inhibition of HDAC6.
The mark [6] stands for this setting: selectivity profiling, top concentration 200 μM.

Like-named read-outs stand apart in the source and are kept apart here.

Chain of HDAC2 (Q92769 whole entry): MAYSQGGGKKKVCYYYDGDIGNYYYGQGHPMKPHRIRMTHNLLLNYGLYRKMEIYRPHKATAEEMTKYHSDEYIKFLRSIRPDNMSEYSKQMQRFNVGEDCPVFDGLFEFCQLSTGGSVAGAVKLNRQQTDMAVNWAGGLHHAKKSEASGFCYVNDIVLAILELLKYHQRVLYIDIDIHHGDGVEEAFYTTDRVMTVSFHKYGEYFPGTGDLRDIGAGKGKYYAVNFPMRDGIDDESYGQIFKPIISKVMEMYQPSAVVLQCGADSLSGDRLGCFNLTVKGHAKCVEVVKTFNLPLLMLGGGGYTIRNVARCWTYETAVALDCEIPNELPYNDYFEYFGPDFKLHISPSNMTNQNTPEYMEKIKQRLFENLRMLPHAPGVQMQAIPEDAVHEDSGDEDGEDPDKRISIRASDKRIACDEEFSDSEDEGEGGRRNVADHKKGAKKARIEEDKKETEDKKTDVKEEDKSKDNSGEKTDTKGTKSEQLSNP
Chain of HDAC8 (Q9BY41 whole entry): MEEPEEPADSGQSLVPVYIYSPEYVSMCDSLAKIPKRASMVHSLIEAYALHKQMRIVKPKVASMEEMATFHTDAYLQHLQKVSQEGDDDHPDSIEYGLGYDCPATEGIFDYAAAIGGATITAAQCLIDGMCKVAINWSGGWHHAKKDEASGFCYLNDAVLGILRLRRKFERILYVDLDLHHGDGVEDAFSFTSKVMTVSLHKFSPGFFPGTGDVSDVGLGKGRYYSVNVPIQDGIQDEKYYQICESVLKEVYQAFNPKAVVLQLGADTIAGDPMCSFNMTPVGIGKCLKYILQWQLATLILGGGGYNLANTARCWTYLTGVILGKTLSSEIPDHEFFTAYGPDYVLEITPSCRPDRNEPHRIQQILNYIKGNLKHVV
Chain of HDAC5 (Q9UQL6 whole entry): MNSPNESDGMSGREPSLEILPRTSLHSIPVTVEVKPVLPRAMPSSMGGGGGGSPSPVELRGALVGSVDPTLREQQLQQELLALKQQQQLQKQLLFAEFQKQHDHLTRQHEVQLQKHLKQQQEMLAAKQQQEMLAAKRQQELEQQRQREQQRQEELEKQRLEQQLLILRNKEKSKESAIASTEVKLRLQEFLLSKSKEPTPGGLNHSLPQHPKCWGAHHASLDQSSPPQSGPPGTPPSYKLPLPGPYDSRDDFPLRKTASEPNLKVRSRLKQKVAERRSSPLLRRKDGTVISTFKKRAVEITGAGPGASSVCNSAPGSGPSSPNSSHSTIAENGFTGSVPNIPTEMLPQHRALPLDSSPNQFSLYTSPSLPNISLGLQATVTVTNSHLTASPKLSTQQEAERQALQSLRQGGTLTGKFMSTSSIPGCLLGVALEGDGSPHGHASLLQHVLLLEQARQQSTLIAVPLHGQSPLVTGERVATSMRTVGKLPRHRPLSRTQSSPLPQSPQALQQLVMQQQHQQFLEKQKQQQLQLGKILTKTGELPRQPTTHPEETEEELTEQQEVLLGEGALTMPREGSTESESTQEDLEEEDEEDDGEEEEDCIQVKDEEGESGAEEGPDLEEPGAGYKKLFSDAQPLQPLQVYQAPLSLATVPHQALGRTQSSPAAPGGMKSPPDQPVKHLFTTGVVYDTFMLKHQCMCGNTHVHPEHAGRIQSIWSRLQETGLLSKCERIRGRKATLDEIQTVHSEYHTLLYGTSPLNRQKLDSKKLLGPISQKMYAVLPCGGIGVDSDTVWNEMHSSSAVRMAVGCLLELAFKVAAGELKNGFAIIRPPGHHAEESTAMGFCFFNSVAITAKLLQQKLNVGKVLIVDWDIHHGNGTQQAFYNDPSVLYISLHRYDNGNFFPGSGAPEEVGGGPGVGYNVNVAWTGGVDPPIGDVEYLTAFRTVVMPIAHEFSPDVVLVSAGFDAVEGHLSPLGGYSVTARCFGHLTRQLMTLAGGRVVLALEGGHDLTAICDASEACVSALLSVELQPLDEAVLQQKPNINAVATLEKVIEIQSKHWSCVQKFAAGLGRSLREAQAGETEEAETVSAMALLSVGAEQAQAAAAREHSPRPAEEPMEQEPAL
Chain of HDAC9 (Q9UKV0 whole entry): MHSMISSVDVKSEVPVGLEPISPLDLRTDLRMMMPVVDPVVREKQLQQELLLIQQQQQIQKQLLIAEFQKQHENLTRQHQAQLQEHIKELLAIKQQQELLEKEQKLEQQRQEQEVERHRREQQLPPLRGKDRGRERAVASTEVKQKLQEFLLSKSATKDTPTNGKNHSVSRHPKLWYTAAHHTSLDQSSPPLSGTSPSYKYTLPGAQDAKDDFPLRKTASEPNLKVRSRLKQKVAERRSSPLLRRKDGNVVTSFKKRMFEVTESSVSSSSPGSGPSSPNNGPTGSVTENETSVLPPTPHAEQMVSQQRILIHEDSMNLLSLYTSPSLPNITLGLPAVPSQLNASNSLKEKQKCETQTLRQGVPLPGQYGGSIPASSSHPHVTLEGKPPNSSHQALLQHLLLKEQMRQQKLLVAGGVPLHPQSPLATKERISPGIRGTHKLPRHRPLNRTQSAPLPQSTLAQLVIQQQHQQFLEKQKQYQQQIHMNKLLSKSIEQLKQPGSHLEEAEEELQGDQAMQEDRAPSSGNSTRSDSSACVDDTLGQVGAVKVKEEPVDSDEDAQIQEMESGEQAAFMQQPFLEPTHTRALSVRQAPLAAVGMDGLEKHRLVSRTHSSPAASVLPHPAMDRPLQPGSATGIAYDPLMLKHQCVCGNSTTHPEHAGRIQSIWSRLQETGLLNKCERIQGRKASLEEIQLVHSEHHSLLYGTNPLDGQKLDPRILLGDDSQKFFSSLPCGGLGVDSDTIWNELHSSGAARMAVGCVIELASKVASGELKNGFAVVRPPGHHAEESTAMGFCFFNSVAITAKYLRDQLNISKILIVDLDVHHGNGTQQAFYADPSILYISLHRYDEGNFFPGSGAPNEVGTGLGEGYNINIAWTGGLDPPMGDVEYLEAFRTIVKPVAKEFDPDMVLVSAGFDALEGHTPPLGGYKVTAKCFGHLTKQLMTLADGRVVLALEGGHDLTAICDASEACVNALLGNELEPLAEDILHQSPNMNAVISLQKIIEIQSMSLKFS

As to `O=C(NO)c1ccc2nc(-c3ccccc3C(F)(F)F)[nH]c2c1` [Example 18, N-hydroxy-2-[2-(trifluoromethyl)phenyl]-1H-benzimidazole-6-carboxamide], the IC50 on HDAC11, on HDAC8 (setting [2]), on HDAC9, at HDAC5, at HDAC1 (setting [3]) and at HDAC4 was over 10 µM each time. The IC50 at HDAC3 (setting [2]) was 3 µM; at HDAC10 it was 8.6 µM; at HDAC7, 9.2 µM; at HDAC6 (setting [4]), 0.077 µM; on HDAC6 (setting [5]), 0.077 µM; on HDAC2 (setting [2]), over 10 µM.

For the molecule `Cc1cc(O)cc(C)c1-c1nc2ccc(C(=O)NO)cc2[nH]1` [Example 15, N-hydroxy-2-(4-hydroxy-2,6-dimethylphenyl)-1H-benzimidazole-6-carboxamide], the IC50 on HDAC11 was over 10 µM; at HDAC8 (setting [2]), over 10 µM; at HDAC9, 6.9 µM; on HDAC5 it was over 10 µM; on HDAC1 (setting [3]), over 10 µM; at HDAC4, over 10 µM. Also, the IC50 is 8.2 µM at HDAC3 (setting [2]); over 10 µM at HDAC10; 3 µM on HDAC7; 0.069 µM on HDAC6 (setting [4]); 0.069 µM at HDAC6 (setting [5]); over 10 µM at HDAC2 (setting [2]).

Turning to `CC(C)c1ccc(-c2nc3cc(C(=O)NO)ccc3n2C)cc1` [Example 223, N-hydroxy-1-methyl-2-[4-(1-methylethyl)phenyl]-1H-benzimidazole-5-carboxamide], the IC50 in [1] was over 20 µM; in the assay with PaCa2 (pancreatic), 5.4 µM; with AMO-1 (plasmacytom), 18 µM; in the assay on U266 (multiple myelom), 8.2 µM; at HDAC8 (setting [6]), 0.084 µM; at HDAC1 (read-out: IC50 HDAC1, selectivity profiling, top concentration 200 μM), 1.6 µM. For the same molecule, the IC50 is 4.5 µM at HDAC3 (setting [6]); 0.028 µM on HDAC6 (selectivity profiling, top concentration 2 μM, read-out: IC50 HDAC6); 0.028 µM at HDAC6 (setting [5]); 60 µM on HDAC2 (setting [6]).
